Results taken from article PMC9344964 (Journal of Enzyme Inhibition and Medicinal Chemistry, 2022).
pEC50, pIC50: −log10 of the molar value. In brackets after ≈: the same amount, converted by molar mass. Read-outs that look alike come from different tables or passages of the source.

Columns and labels:
[1] = MTT cytotoxicity assay; assay type: cell-based; conditions: African green monkey, Vero E6 cells, read-out: cytotoxic concentration 50 (CC50)
Description: It was performed to calculate the newly synthesised candidates’ minimum concentrations that cause 50% toxicity to the cells (CC50). First, the newly synthesised derivatives were dissolved in ddH2O with 10% DMSO and then diluted with Dulbecco's Modified Eagle's Medium (DMEM) to the desired concentrations. The MTT assay method was performed with minor changes using VERO-E6 cells (ready for the virus propagation) to be applied in other experiments. The complete methodology was elucidated in the Supplementary Data (SI2).
(§1) SI 2. MTT cytotoxicity assay.
(§2) The VERO-E6 cells were kept in 96 well-plates at 37°C in 5% CO2 for 24 h to be cultivated. The tested compounds were diluted with DMEM in HA plate in triplicates as mentioned before and then poured onto the prepared cells after washing twice by sterile 1x phosphate buffer saline (PBS). 24 h later, the cell monolayers were washed three times with sterile 1x PBS after removal of the supernatant followed by the addition of the MTT solution into each individual well (20 µl of 5 mg/ml stock solution) which was kept at 37°C for 4 h. The formed formazan crystals were dissolved using an acidified isopropanol (200 µl) and the absorbance of their solutions were recorded through a multi-well plate reader (λmax = 540 nm) against a reference wavelength (λmax= 620 nm). Finally, the cytotoxicity % of the tested compounds compared to the control cells (untreated cells) was calculated as follow:
(§3) % Cytotoxicity = (the absorbance of untreated cells − absorbance of treated cells) X 100 […]
(§4) SI 3. Inhibitory concentration 50 (IC50) determination.
(§5) The Vero-E6 cells (2.4×104) were kept overnight at 37°C in 5% CO2 inside 96-well tissue culture plates. 1x PBS solution was used to wash the cell monolayers for only one time which were then treated with different serial dilutions of the examined compounds together with a fixed dilution from the virus (hCoV-19/Egypt/NRC-03/2020 (Accession Number on GSAID: EPI_ISL_430820)) following TCID50 test and kept at RT for 1 h before starting incubation. Also, the cell monolayers were subjected to DMEM (100 μl) with different concentrations of the test samples and virus and left at 37°C for 72 h in a 5% CO2. Then, 4% paraformaldehyde (100 μl) was used for cell fixation (2 h) followed by the staining step with 0.1% crystal violet in distilled H2O (50 μl) at RT for 15 min. Absolute CH3OH (100 μl) was added to dissolve the crystal violet dye per well to measure the optical density of the produced color using Anthos Zenyth 200rt plate reader at 570 nm.1 The IC50 value for each tested compound which is corresponding to its minimum concentration required to reduce the virus infectivity by 50% in comparison to the virus control was calculated.

[2] = test system: SARS-CoV-2 [hCoV-19/Egypt/NRC-03/2020]; assay: SARS-CoV-2 inhibitory assay (IC50 determination, crystal violet) in Vero E6 cells; assay type: cell-based
Description: The IC50 for each examined compound (3a–g) which is equivalent to the minimum concentration to inhibit the virus infectivity by 50% compared to the virus control was calculated. The full methodology was depicted in the Supplementary Data (SI3).
as §1, §2, §3, §4, §5

[3] = biological target: SARS-CoV-2 Mpro (Severe acute respiratory syndrome coronavirus 2, UniProt P0DTD1); assay: SARS-CoV-2 Mpro assay (3CL Protease Assay Kit); assay type: biochemical
Description: The Mpro activity was investigated using the 3CL Protease Assay Kit. The applied protocol and methodology were depicted in the Supplementary Data (SI4). Herein, the present assay was established to assess the newly synthesised candidates (3a–g) inhibitory effects on the SARS-CoV-2 Mpro enzyme as a recommended mechanism of action.
SI 4. Methodology and protocol of 3CL Protease (SARS-CoV-2) assay.
The 3CL Protease Assay Kit is designed to measure 3CL Protease activity for screening and profiling applications, in a homogeneous assay with no time-consuming washing steps. The kit comes in a convenient 96-well format, with purified 3CL Protease, fluorogenic substrate, and 3CL Protease assay buffer for 100 enzyme reactions. 3CL inhibitor GC376 is also included as a positive control.
Add 0.5 M DTT to 3CL Protease Assay Buffer so final DTT concentration is 1 mM. For example, add 10 μl of 0.5 M DTT to 5 ml assay buffer. (DTT should be added just before use. Prepare only enough DTT-containing buffer as required for the assay. Store the remaining assay buffer at - […]
2) Thaw 3CL Protease on ice. Upon first thaw, briefly spin tube containing enzyme to recover the full content of the tube. Aliquot 3CL Protease into single use aliquots. Store remaining undiluted enzyme in aliquots at -80°C. Note: 3CL Protease enzyme is sensitive to freeze/thaw cycles.
3) Dilute 3CL Protease in Assay buffer (with 1 mM DTT) at 3-5 ng/μl (90-150 ng per reaction).
4) Add 30 μl diluted 3CL Protease enzyme solution to wells designated as “Positive Control”, “Inhibitor Control” and “Test Sample”. Add 30 μl Assay buffer (with 1 mM DTT) to the “Blank” wells.
Component Positive Test Sample Inhibitor Blank
Assay Buffer (with DTT) − − − 30 μl […]
Inhibitor Buffer (no inhibitor) 10 μl − − 10 μl […]
5) Dilute 50 μg GC376 in 200 μl water to obtain a 500 μM solution. Aliquot and store remaining solution in aliquots at -80°C. Add 10 μl GC376 (500 μM) to the wells labeled “Inhibitor Control”.
6) Prepare the inhibitor solution.
The final concentration of DMSO in the assay should not exceed 1%. If the inhibitor compound is dissolved in DMSO, make a 100-fold higher concentration of the compound than the highest […]
concentration you want to test in DMSO. Then make a 20-fold dilution in 1X assay buffer (at this step the compound concentration is 5-fold higher than the final concentration).
If the inhibitor compound is dissolved in water, make a solution of the compound 5-fold higher than the final concentration in 3CL Protease assay buffer (with 1 mM DTT). For example, diluting 50 μg GC376 in 200 μl water (step 5) creates a 500 μM solution. Adding 10 ul to the assay (final volume 50 μl) results in a 100 μM final concentration.
7) Add 10 μl inhibitor to each well designated “Test Sample”. Add 10 μl 1X assay buffer or 5% DMSO (depending on which inhibitor solution is used) to “Blank” and “Positive Control” wells.
8) Preincubate enzyme with the inhibitor for 30 min at room temperature with slow shaking.
9) Dilute 5 mM 3CL Protease substrate 1:20 in assay buffer with DTT, to make a 250 μM solution.
Dilute only enough as is required for the assay.
10) Start reaction by adding 10 μl of the substrate solution to each well (Final concentration of the 3CL Protease substrate in a 50 μl reaction is 50 μM).
11) Incubate at room temperature for overnight. Seal the plate with the plate sealer. Measure the fluorescence intensity in a microtiter plate-reading fluorimeter capable of excitation at a wavelength 360 nm and detection of emission at a wavelength 460 nm. The fluorescence intensity can also be measured kinetically. “Blank” value is subtracted from all other values.
SI 5. Molecular dynamics (MD) simulations.
The MD simulations were carried out using Desmond simulation package of Schrödinger LLC.2 The NPT ensemble with the temperature 300 K and a pressure 1 bar was applied in all runs. The simulation length was 100 ns with a relaxation time 1 ps for the ligands. […]

[4] = parameters: method as in PMID 34641339; conditions: single-dose administration; cited from earlier work
[5] = test system: SARS-CoV-2; parameters: method as in PMID 33352056; conditions: in vitro assessment; read-out: EC50 against SARS-CoV-2; cited from earlier work
[6] = Severe acute respiratory syndrome coronavirus 2, Vero C1008, read-out: IC50 (anti-SARS-CoV-2 activity)
[7] = Severe acute respiratory syndrome coronavirus 2, Vero C1008, Vero E6 cells, hCoV-19/Egypt/NRC-03/2020, read-out: IC50 (anti-SARS-CoV-2 activity)
[8] = 3CL Protease Assay Kit, read-out: SARS-CoV-2 Mpro IC50 (converted)
[9] = values used for multiple linear regression, read-out: IC50 (Table 4, regression model; SARS-CoV-2 Mpro values) (converted)

Row | Compound | CC50 at 24 h [1] [µg/mL] | pIC50 [2, 6] | IC50 [2, 7] [µg/mL] | IC50 [3, 8] [µM] | selectivity index (SI = CC50/IC50) ([2]; Vero E6 cells) | IC50 [3, 9] [µM] | IC50 [2, 6] [µg/mL] | biological t1/2 [4] [h] | mean Cmax [4] [ng/mL] | pEC50 [5]
1 | Cc1ccc(C(=O)Nc2ncc([N+](=O)[O-])s2)cc1 [Compound 3a, 4-Methyl-N-(5-nitrothiazol-2-yl)benzamide] | 1470 (≈ 5.57 mM) | 2.28 | 1380 | 17.7 |  |  |  |  |  | 
2 | O=C(CNC(=O)OCc1ccccc1)Nc1ncc([N+](=O)[O-])s1 [Compound 3b, Benzyl (2-((5-nitrothiazol-2-yl)amino)-2-oxoethyl)carbamate] | 1850 (≈ 5.51 mM) | 3.28 | 175 | 15.2 | 10 |  |  |  |  | 
3 | C[C@H](NC(=O)OCc1ccccc1)C(=O)Nc1ncc([N+](=O)[O-])s1 [Compound 3c, Benzyl (S)-(1-((5-nitrothiazol-2-yl)amino)-1-oxopropan-2-yl)carbamate] | 2120 (≈ 6.05 mM) | 2.70 | 698 |  | 3 | 34 |  |  |  | 
4 | CC(C)[C@H](NC(=O)OCc1ccccc1)C(=O)Nc1ncc([N+](=O)[O-])s1 [Compound 3d, Benzyl (S)-(3-methyl-1-((5-nitrothiazol-2-yl)amino)-1-oxobutan-2-yl)carbamate] | 1200 (≈ 3.18 mM) |  |  |  |  | 235 | > 1200 |  |  | 
5 | O=C(N[C@@H](Cc1ccccc1)C(=O)Nc1ncc([N+](=O)[O-])s1)OCc1ccccc1 [Compound 3e, Benzyl (S)-(1-((5-nitrothiazol-2-yl)amino)-1-oxo-3-phenylpropan-2-yl)carbamate] | 2040 (≈ 4.78 mM) | 2.52 | 1280 |  |  | 38.9 |  |  |  | 
6 | O=C(Nc1ncc([N+](=O)[O-])s1)[C@@H]1CCCN1C(=O)OCc1ccccc1 [Compound 3f, Benzyl (S)-2-((5-nitrothiazol-2-yl)carbamoyl)pyrrolidine-1-carboxylate] | 2800 (≈ 7.44 mM) | 2.48 | 1250 |  |  | 59.4 |  |  |  | 
7 | O=C(N[C@@H](Cc1c[nH]c2ccccc12)C(=O)Nc1ncc([N+](=O)[O-])s1)OCc1ccccc1 [Compound 3g, Benzyl (S)-(3-(1H-indol-3-yl)-1-((5-nitrothiazol-2-yl)amino)-1-oxopropan-2-yl)carbamate] | 1630 (≈ 3.49 mM) |  |  |  |  | 110 | > 1630 |  |  | 
8 | CC(C)C(=O)OC[C@H]1O[C@@H](n2ccc(NO)nc2=O)[C@H](O)[C@@H]1O [molnupiravir] |  |  |  |  |  |  |  | 7 | 13.2 | 
9 | CC(=O)Oc1ccccc1C(=O)Nc1ncc([N+](=O)[O-])s1 [nitazoxanide] |  |  |  |  |  |  |  |  |  | 5.67
